Test results reported in PMC10397409, “The action of physiological and synthetic steroids on the calcium channel CatSper in human sperm” (Frontiers in Cell and Developmental Biology, 2023).
“And” between values parts separate entries of the source, which are not always exact repeats. Identical values can stand only once. Like-named read-outs stand apart in the source and are kept apart here.

Legend:
CatSper [1] = biological target: T1, CatSper (Homo sapiens, UniProt Q7RTX7+Q86XQ3+Q8NEC5+Q96P56); test: Inhibition of P4-induced Ca2+ influx in human sperm (screen 2 inhibitors); type: cell-based
T1 construct: Motile spermatozoa were selected by a ‘swim-up’ procedure; endogenous in cells; host or cells: motile human spermatozoa (swim-up) from healthy donors
Method: (§1) Briefly, motile spermatozoa were selected by swim-up and labeled with the fluorescent calcium indicator Fluo-4 a.m. to image changes in [Ca^2+]i. After centrifugation to remove excess dye, Fluo-4 AM loaded cells were distributed in a 384-wells plate to obtain ∼125,000 cells/well. After measuring basal fluorescence, a first injection of compounds was performed in order to evaluate their effect on [Ca^2+]i alone. This first screen is therefore considered as a screen to search for ‘activators’. Fluorescence was recorded for 12 min during which sperm cells were continuously exposed to compounds. P4 or PGE1 were then added in the same wells to evaluate whether the tested compounds can reduce the ligand-induced activation of CatSper. This second screen was therefore considered to be a search for CatSper ‘inhibitors’.
Human semen samples were collected from healthy donors by masturbation after a recommended sexual abstinence period of minimum 2 days. Semen samples were allowed to liquefy at 37°C for 15–30 min. Motile spermatozoa were selected by a ‘swim-up’ procedure as previously described ([Strünker et al., 2011]). Briefly, 1 mL of semen was deposited in a 45°-inclined 50 mL Falcon tube with 4 mL of Human Tubular Fluid (HTF) medium containing: 93.8 mM NaCl, 4.7 mM KCl, 0.2 mM MgSO4, 0.37 mM KH2PO4, 2.04 mM CaCl2, 20.98 mM HEPES, 2.78 mM glucose, 21.4 mM Na-lactate, 4 mM NaHCO3, 0.33 mM Na-pyruvate, and the pH was adjusted to 7.35. Motile sperm were allowed to swim at 37°C for 1 hour. The supernatant was collected in 15 mL Falcon tubes and washed twice by centrifugation at 700 x g for 20 min. Sperm were supplemented with 3 mg/mL HSA. Written informed consent was obtained from all donors prior to donation and approved by the Cantonal Ethics Committee of the State of Geneva (CCER #14-147).
(§2) Cells were loaded with the fluorescent Ca^2+ indicator Fluo-4 AM at a final concentration of 2.5 µM for 30 min at 37°C. Excess dye was washed via centrifugation at 700 x g for 20 min and sperm were resuspended in HTF medium to obtain a final concentration of 6.25 x 10^6 cells/mL. 20 μL of cells (corresponding to ∼125,000 cells) loaded with Fluo-4 a.m. were dispensed in a 384-wells plate (Corning, NY, United States) to allow fluorescence measurement. The dye was excited at 480 nm, and emission was recorded at 530 nm. The change in [Ca^2+]i was assessed simultaneously in all wells using a Functional Drug Screening System (FDSS/μCELL) (Hamamatsu Phototonics K.K., Yokohama, Japan) at 37°C. Basal fluorescence was first measured for 30 s. […] P4 and PGE1 were tested at a near-saturating concentration in the HTS in order to evaluate a potential additive or synergistic effect induced by the compounds. Non-specific CatSper inhibitor MDL 12330A was used as a negative control at final concentration of 20 µM while DMSO was used as a vehicle control. For alkalization-induced Ca^2+ measurement, NH4Cl was used as a positive control at a final concentration of 10 mM. Fluorescence was recorded for a total of 16.5 min: 30 s before injection, 12 min after the first injection of the tested compounds, and 4 min after the second injection of either P4 or PGE1. The Prestwick library was tested in technical duplicate. Ca^2+ response curves were normalized using the following formula F−F0/F0×100 , where F 0 is the average of the basal fluorescence prior to the addition of the compound of interest and F corresponds to the fluorescence value at each time point. The ∆F/F0 of the vehicle control (DMSO) was subtracted from all the other values to adjust for dilution and pipetting artifacts. The values of all compounds were normalized to their respective controls.

CatSper [2] = biological target: T1, CatSper; test: Steroid-induced increase in [Ca2+]i in human sperm (Fluo-4 HTS assay, screen 1 activators); type: cell-based; conditions: for Emax: read-out: Max amplitude (%) (± SD)
Method: as §1
Human semen samples were collected from healthy donors by masturbation after a recommended sexual abstinence period of minimum 2 days. Semen samples were allowed to liquefy at 37°C for 15–30 min. […] Motile sperm were allowed to swim at 37°C for 1 hour. The supernatant was collected in 15 mL Falcon tubes and washed twice by centrifugation at 700 x g for 20 min. Sperm were supplemented with 3 mg/mL HSA.
as §2, with “20” for “Cells were loaded with the fluorescent Ca^2+ indicator Fluo-4 AM at a final concentration of 2.5 µM for 30 min at 37°C. Excess dye was washed via centrifugation at 700 x g for 20 min and sperm were resuspended in HTF medium to obtain a final concentration of 6.25 x 10^6 cells/mL. 20”, “Non-specific CatSper inhibitor MDL 12330A was used as a negative control at final concentration of 20 µM while DMSO was used as a vehicle control.” left out, “Fluorescence was recorded for a total of 16.5 min: 30 s before injection, 12 min after the first injection of the tested compounds, and 4 min after the second injection of either P4 or PGE1.” left out
Data are shown as mean ± standard deviation (SD) with “n” referring to the number of independent experiments performed using sperm samples from ≥3 different donors. Statistical analysis and fitting of dose-response relations were performed using GraphPad Prism 8.1.1 (Prism, La Jolla, United States). To generate sigmoidal curves, the concentrations were converted to their respective log values, and the data were normalized using the following formula: 100⋅x/Fmax , where Fmax is the maximum value of the positive control. A four-parameter Hill equation with a variable Hill coefficient was fitted to generate the EC02, EC50, and IC50. Statistical significance between control and treated conditions was evaluated using a one-way analysis of variance (ANOVA), followed by Dunnett´s test. A p-value <0.05 was considered significant.

[3] = Mean IC50 (P4) µM (±SD), P4-induced response, pooled from 3 independent experiments
[4] = Mean EC50 µM (±SD), pooled from 3 independent experiments
[5] = P4-induced response, pooled from 3 independent experiments, read-out: Mean IC50 (P4) µM (±SD)
[6] = pooled from 3 independent experiments, read-out: Mean EC50 µM (±SD)
[7] = maximal amplitude of steroid-induced [Ca2+]i increase, relative to P4, 3 independent experiments
[8] = IC50 (±SD), inhibition of P4-induced Ca2+ response, dose-response 90 µM to 0.3 nM
[9] = EC50 (±SD), increase in [Ca2+]i, dose-response 90 µM to 0.3 nM

Row | Structure (SMILES) | Max P4 inhibition (%) (± SD) (CatSper [1]; 3 independent experiments) | Emax (CatSper [2]) | IC50 (CatSper [1]; [3]) | IC50 (CatSper [1]; [5]) | EC50 (CatSper [2]; [6]) | Emax (CatSper [2]; [7]) | also measured
1 | CC(=O)C1CCC2C3CC[C@H]4CC(=O)CC[C@]4(C)C3CC[C@]12C (some centres unmarked) [S46] | 90 (±6) % | 141% |  |  |  |  | IC50 (CatSper [1]; IC50, decrease of response to P4): 0.046 µM and 0.138 µM; EC50 (CatSper [2]; EC50, increase in [Ca2+]i in human sperm): 0.032 µM and 0.073 µM
2 | CC12CCC(O)CC1CCC1C2CCC2(C)C1CCC2(C)O (centres unmarked) [S64] | 55 (±1) % | 65% | 0.682 µM |  |  |  | EC50 (CatSper [2]; [4]): 0.265 µM
3 | C[C@]12CC[C@H]3[C@@H](CC[C@H]4C[C@H](O)CC[C@@H]43)[C@@H]1CCC2=O [S85] | 96 (±2) % | 99% | 0.495 µM |  |  |  | EC50 (CatSper [2]; [4]): 0.259 µM
4 | CC12CCC(O)CC1=CCC1C2CCC2(C)C(C(=O)O)CCC12 (centres unmarked) [S67] | 86 (±3) % | 80% | 0.253 µM |  |  |  | EC50 (CatSper [2]; [4]): 0.108 µM
5 | C#C[C@]1(O)CC[C@H]2[C@@H]3CCC4=CC(=O)CC[C@@H]4[C@H]3CC[C@@]21C [norethindrone] |  | 28% |  | 4.35 µM | 6.05 µM |  | Max P4 inhibition (%) (± SD) (CatSper [1]): 22 (±5) %
6 | C[C@H](CCC(=O)O)[C@H]1CC[C@H]2[C@@H]3CC[C@@H]4C[C@H](O)CC[C@]4(C)[C@H]3CC[C@]12C [lithocholic acid] |  | 59% |  |  |  |  | Max P4 inhibition (%) (± SD) (CatSper [1]): 32 (±10) %
7 | C=C1C[C@@H]2[C@H](CC[C@]3(C)C(=O)CC[C@@H]23)[C@@]2(C)C=CC(=O)C=C12 [exemestane] |  | 63% |  | 0.309 µM | 0.557 µM |  | Max P4 inhibition (%) (± SD) (CatSper [1]): 56 (±2) %
8 | C[C@]12CC[C@@H]3c4ccc(O)cc4C[C@@H](CCCCCCCCC[S+]([O-])CCCC(F)(F)C(F)(F)F)[C@H]3[C@@H]1CC[C@@H]2O (some centres unmarked) [fulvestrant] | 22 (±6) % |  |  | 6.95 µM | 2.24 µM | 28% | 
9 | C#C[C@]1(O)CC[C@H]2[C@@H]3CCc4cc(OC)ccc4[C@H]3CC[C@@]21C [ethynylestradiol 3-methyl ether] | 4 (±3) % |  |  |  |  | 9% | 
10 | C[C@]12CC[C@H]3[C@@H](CCC4=CC(=O)CC[C@@]43C)[C@@H]1CC[C@@H]2C(=O)CO [Deoxycorticosterone] | 86 (±3) % | 94% |  |  |  |  | reduction of the P4 response (CatSper [1]): more than 86%; IC50 (CatSper [1]; [8]): 0.523 µM; IC50 (CatSper [1]; IC50, reduction of P4 response): 0.5 µM; EC50 (CatSper [2]; [9]): 0.302 µM; EC50 (CatSper [2]; EC50, increase in [Ca2+]i): 0.3 µM; EC50 (CatSper [2]; [4]): 0.295 µM
11 | C#C[C@]1(OC(C)=O)CC[C@H]2[C@@H]3CCC4=CC(=NO)CC[C@@H]4[C@H]3CC[C@@]21CC (mixture of isomers) [norgestimate] | 53 (±5) % |  |  | 8.05 µM | 0.918 µM | 79% | 
12 | CC12CCC3C(CC[C@H]4CC(=O)CCC34C)C1CCC2O (some centres unmarked) [S65] | 95 (±1) % | 91% |  |  |  |  | 
13 | C[C@]12CCC(=O)C=C1C=C[C@@H]1[C@@H]2CC[C@@]2(C)[C@H]1CC[C@@]21CCC(=O)O1 [canrenone] | 49 (±1) % |  |  |  | 7.51 µM | 69% | 
14 | CC(=O)O[C@]1(C(C)=O)CC[C@H]2[C@@H]3C=C(C)C4=CC(=O)CC[C@]4(C)[C@H]3CC[C@@]21C [megestrol acetate] | -4 (±11) % |  |  |  |  | 3% | 
15 | C#C[C@]1(O)CC[C@H]2[C@@H]3CCC4=CC(=O)CC[C@]4(C)[C@H]3CC[C@@]21C [ethisterone] | 10 (±9) % | 8% |  | 5.13 µM |  |  | 
16 | C[C@]12CC[C@@H]3c4ccc(O)cc4CC[C@H]3[C@@H]1CCC2=O [estrone] | 67 (±2) % |  | 0.56 µM |  |  | 49% | EC50 (CatSper [2]; [4]): 0.267 µM
17 | C#C[C@]1(O)CC[C@H]2[C@@H]3CCC4=CC(=O)CCC4=C3C=C[C@@]21CC [gestrinone] | 11 (±21) % | 2% | 33.6 µM |  |  |  | 
18 | C[C@]12CC[C@H]3[C@@H](CCC4=CC(=O)CC[C@@]43C)[C@@H]1CC[C@@H]2O [Testosterone] | 81 (±6) % | 87% | 1.09 µM |  |  |  | EC50 (CatSper [2]; [9]): 0.407 µM
19 | CC(=O)[C@H]1CC[C@H]2[C@@H]3C[C@H](C)C4=CC(=O)CC[C@]4(C)[C@H]3[C@@H](O)C[C@]12C [Medrysone] | 83 (±4) % |  |  | 0.471 µM | 0.23 µM | 104% | IC50 (CatSper [1]; inhibition of P4-induced Ca2+ response, dose-response 90 µM to 0.3 nM, read-out: IC50 (±SD)): 0.569 µM; EC50 (CatSper [2]; increase in [Ca2+]i, dose-response 90 µM to 0.3 nM, read-out: EC50 (±SD)): 0.24 µM
20 | C[C@]12CC[C@@H]3c4ccc(O)cc4CC[C@H]3[C@@H]1CC[C@@H]2O [estradiol-17 beta] | 67 (±3) % |  |  | 1.45 µM | 0.761 µM |  | Max amplitude (%) (± SD) (CatSper [2]; [7]): 75 (±8) %
21 | C[C@]12CC[C@H]3[C@@H](CCC4=CC(=O)CC[C@@H]43)[C@@H]1CC[C@@H]2O [Nandrolone] | 85 (±1) % | 98% | 0.729 µM |  |  |  | IC50 (CatSper [1]; [8]): 0.711 µM; EC02 compared with reported maximum concentration in blood serum (CatSper [2]): EC02 below the reported maximum concentration found in blood serum; EC50 (CatSper [2]; [9]): 0.306 µM; increase in [Ca2+]i (CatSper [2]; at low concentrations in the nanomolar range): 30%
22 | C[C@]12CC[C@H]3C(=CCc4cc(O)ccc43)[C@@H]1CCC2=O [equilin] |  | 62% |  |  |  |  | IC50 (CatSper [1]): 1.85 µM; Max P4 inhibition (%) (± SD) (CatSper [1]): 50 (±11) %; EC50 (CatSper [2]): 0.999 µM
